Patent publication US10590143B2, “Herbicidally active (alkynyl-phenyl)-substituted cyclic dione compounds and derivatives thereof” (Syngenta Limited, priority 2013, dated 2020)

Columns and labels:
Assay in all cases: Biological Example 3 glasshouse assay for herbicidal activity, using various adjuvant systems
Assay type in all cases: in vivo
Details in all cases: post-emergence, 8 g/ha, 14 or 15 DAA; adjuvant 0.5% v/v + 1.0% AMS + 12.5% IPA: TEHP (A3-A7), Adigor (A8, P1, P2, P4), Hexamoll DINCH (A1)
[1] = system: Digitaria sanguinalis (DIGSA)
Procedure: (§1) • Materials and Methods • Herbicide Application: Post-emergence foliar spray application, 200 L/ha, usually one or two replicates for the weeds (depending on application rate), and two replicates for soybean. • Climate: Standard warm conditions (tropical), in glasshouse. Specifically, the glasshouse bay conditions are 24° C./18° C. day/night; 16/8 hours light/dark; 65% humidity. • Plants: The herbicidal application takes place at the following growth stages for plants which include inter alia one or more of the following plants (usually the herbicidal application takes place on at least the following plants: DIGSA, ELEIN, SETFA, ZEAMX, GLXMA Nikko, and GLXMA TMG133, and often also either BRADC or BRAPP): • Brachiaria decumbens (BRADC)—growth stage (GS) 12 or 13 (or GS 12)—or, if BRADC is not used, then usually Brachiaria platyphylla (BRAPP)—growth stage 12 or 13 • Digitaria sanguinalis (DIGSA)—growth stage 12 or 13 • Eleusine indica (ELEIN)—growth stage 12 or 13 • Setaria faberi (SETFA)—growth stage 12 or 13 • Echinochloa crus-galli (ECHCG)—growth stage 12 or 13 • Sorghum halepense (annual) (SORHA)—growth stage 12 or 13 • Panicum dichotomiflorum (PANDI)—growth stage 12 or 13 • Zea mays (ZEAMX, maize/corn, e.g. can occur as volunteer corn) cultivar “Garland”—growth stage 12 or 13 • Glycine max (GLXMA, soybean) cultivar “Nikko”—growth stage: 1st trifoliate • Glycine max (GLXMA, soybean) cultivar “TMG133”—which is Roundup Ready™ glyphosate-tolerant soybean cultivar TMG133 (typically available from Monsanto in Brazil)—growth stage: 1st trifoliate. • Herbicidal Compositions Tested:
(§2) Each test compound is applied with one of the following adjuvant systems (all percentages are final concentrations in the aqueous spray mixture): • Adjuvant system 1: 0.5% v/v Adigor™*, 1.0% v/v AMS (ammonium sulphate) and 12.5% v/v IPA (isopropyl alcohol). • Adjuvant system 2: 0.5% v/v Hexamoll™ DINCH**, 1.0% v/v AMS (ammonium sulphate) and 12.5% v/v IPA (isopropyl alcohol). • Adjuvant system 3: 0.5% v/v tris-(2-ethylhexyl)phosphate (“TEHP”), 1.0% v/v AMS (ammonium sulphate) and 12.5% v/v IPA (isopropyl alcohol). ***Adigor™ (currently available in many countries from Syngenta) is an emulsifiable concentrate which consists of: • (i) ethoxylated alcohols, which typically includes ethoxylated higher alcohols (e.g. ethoxylates of alcohols wherein the alcohols are within the range of C12-C22); and • (ii) a mixture of heavy aromatic hydrocarbons, which typically includes (e.g. includes 50% or more by weight of the heavy aromatic hydrocarbons of) a mixture of naphthalenes each of which is substituted by one or more alkyls wherein the alkyl(s) in total have 1-4 carbon atoms per naphthalene molecule (e.g. Solvesso 200 ND™); and • (iii) about 47% w/w and/or about 45% w/v (with respect to the emulsifiable concentrate) of methylated rapeseed oil (rapeseed oil methyl ester) (e.g. Agnique ME 18 RD-F™), as an adjuvant. **Hexamoll™ DINCH™ is 1,2-cyclohexane dicarboxylic acid di-isononyl ester
(§3) Seeds of the weed (including volunteer) plants, typically including inter alia Digitaria sanguinalis (DIGSA), Eleusine indica (ELEIN), Setaria faberi (SETFA), Zea mays (ZEAMX, corn), and sometimes also [either Brachiaria decumbens (BRADC) or Brachiaria platyphylla (BRAPP)], are sown in seed trays (troughs) containing clay loam soil (pH 7.0, 2.2% organic matter, “Trough Mix A”); and soybean seed is sown in pots containing the same soil with 3 soybean seedlings per pot. The plants are sprayed with the test herbicide when they reach the growth stages mentioned above.
(§4) The test herbicidal solutions are prepared by mixing the appropriate aliquots of the test substance(s) and one of the adjuvant systems indicated above*** in deionised water to give the desired treatment concentration.
(§5) The herbicidal application is made as a foliar spray, using a tracksprayer. Following the herbicidal application, the plants are watered twice per day for the duration of the test. […]

Setaria faberi (SETFA) = system: Setaria faberi (SETFA)
Procedure: as §1, §2, §3, §4, §5

Eleusine indica (ELEIN) = system: Eleusine indica (ELEIN)
Procedure: as §1, §2, §3, §4, §5

[2] = system: Brachiaria decumbens (BRADC)
Procedure: as §1, §2, §3, §4, §5

Structure (SMILES) | percentage control of (percentage phytotoxicity on) Digitaria sanguinalis (DIGSA) [1] | percentage control of (percentage phytotoxicity on) Setaria faberi (SETFA) (Setaria faberi (SETFA)) | percentage control of (percentage phytotoxicity on) Eleusine indica (ELEIN) (Eleusine indica (ELEIN)) | percentage control of (percentage phytotoxicity on) Brachiaria decumbens (BRADC) [2]
CC#Cc1cc(F)c(C2=C(OC(=O)C(C)(C)C)C3CCC(C3)C2=O)c(OC)c1 (centres unmarked) [Compound P1] | 70% |  |  | 
COc1cc(C#CCl)cc(F)c1C1C(=O)C2CCC(C2)C1=O (centres unmarked) [Compound A8, 3-[4-(2-chloroethynyl)-2-fluoro-6-methoxy-phenyl]bicyclo[3.2.1]octane-2,4-dione] | 30% | 10% | 5% | 15%
